This note sets out measurements from patent EP0485890A2, “Use of 2,3-disubstituate 1-azolyl-propane for inhibiting the pathogenic growth phase of dimorph yeast cell” (HOECHST AKTIENGESELLSCHAFT, priority 1990, dated 1992).

Test [1] relates to Candida albicans. Description: Minimal inhibitory concentration (MHK) in vitro. The class given is cell-based. The note with it: read-out: MHK von Candida albicans. The source says:
Außerdem wird deutlich, daß zur Erreichung einer ausgeprägten Hemmwirkung der Phospholipase-Aktivität Dosen ausreichen, die deutlich unterhalb derjenigen liegen, die zur Hemmung des Pilzwachstums in vitro nötig sind und welche bisher für eine reine antimykotische Therapie als unbedingt erforderlich erachtet wurden (sihe MHK-Werte von Candida albicans einiger ausgewählter Derivate).

In test [2] the test system is Lysophospholipase (Phospholipase B). Briefly: In vitro enzyme test: inhibition of released exoenzymes (phospholipase) of Candida albicans blastoconidia on egg-yolk agar. The class given is cell-based. The following applies: Candida albicans Stamm 200/175. The text has this: Als Beispiel für die Hemmung der pathogenen Phase dimorpher Hefezellen werden Ergebnisse eines in-vitro-Enzymtests angeführt, in welchen die prozentuale Hemmung freigesetzter Exoenzyme, insbesondere freigesetzter Lysophospholipase (Phospholipase B), als Maß für die Wirksamkeit bestimmt wird.
Zur Feststellung der Enzymhemmung wurde eine Suspension von Candida albicans Blastokonidien (Stamm 200/175), wobei die Keimdichte photometrisch auf eine Extinktion von 0,5 (500 nm) eingestellt war, mit Präparatelösung bzw. zur Kontrolle mit Lösungsmittellösung vermischt und zwar • a) 100 ul Präparatelösung (Suspension) • + 900 µl Keimsuspension • b) 100 µl Lösungsmittel • + 900 µl Keimsuspension • Jeweils 5 µl der 30 min bei 21 ° C inkubierten Blastokonidiensuspension wurden auf eine Agarplatte (Sabourand Agar mit Zusatz von 8 % Eigelb, 1 M NaCI, 5 mM CaC12) aufgetropft. • Die so beimpfte Platte wurde 3 Tage bei 37 ° C bebrütet.
Die Auswertung erfolgte derart, daß • 1. der Durchmesser (mm) der Candida albicans-Kolonie (behandelt und unbehandelt) sowie • 2. der Gesamtdurchmesser von Kolonie und Trübungshof, welcher durch Exoenzyme verursacht wurde (behandelt und unbehandelt) bestimmt wurde.
Aus der Bestimmung des Quotienten von Präparate- und Kontrollgruppe ergab sich ein Wert, der als Maß für die Enzymaktivität anzusehen war.

In brackets after ≈: the same amount, converted by molar mass.

`CCN(CC(Cn1ccnc1)OCc1ccc(Cl)cc1Cl)c1ccc(Cl)cc1` (stereo not drawn) [1.22]: the MIC in test [1] is 125 µg/mL (≈ 285 µM). Further, the entries for the “% Hemmung der Phospholipase” value in test [2] (Konzentration 10 µg/ml) and in test [2] (Konzentration 50 µg/ml) were 23,1% and 100%, respectively. Take `Clc1ccc(SC(COc2ccc(Cl)cc2Cl)Cn2ccnc2)cc1` (stereo not drawn) [1.10]: the “% Hemmung der Phospholipase” value in test [2] (Konzentration 50 µg/ml) came to 50%. The same measure, in the same setting: next, `Clc1ccc(N2CCN(C(COc3ccc(Cl)cc3Cl)Cn3ccnc3)CC2)cc1` (stereo not drawn) [1.11]: 100%.

For `CC(=NOCC(Cn1ccnc1)OCc1ccc(Cl)cc1)c1ccc(Cl)cc1Cl` (stereo not drawn) [1.29], the “% Hemmung der Phospholipase” value was 20,6% in test [2] (Konzentration 10 µg/ml) and 100% in test [2] (Konzentration 50 µg/ml). In the case of `Clc1ccc(OCC(Cn2ccnc2)N2CCN(c3ccccc3)CC2)cc1` (stereo not drawn) [1.9], in test [2] (Konzentration 50 µg/ml), the “% Hemmung der Phospholipase” value was determined as 100%. Regarding `CCN(CC(O)Cn1ccnc1)c1ccc(Cl)c(Cl)c1` (stereo not drawn) [1.41], the “% Hemmung der Phospholipase” value in test [2] (Konzentration 10 µg/ml) was 33,3%; in test [2] (Konzentration 50 µg/ml), 100%. On to `CCN(CC(Cn1ccnc1)OCc1ccc(Cl)cc1)c1cccc(Cl)c1` (stereo not drawn) [1.25], for which the “% Hemmung der Phospholipase” value in test [2] (Konzentration 10 µg/ml) was 27,3%; in test [2] (Konzentration 50 µg/ml), 60%.

With `OC(CN(Cc1ccc(Cl)cc1)Cc1ccc(Cl)cc1)Cn1ccnc1` (stereo not drawn) [1.8], in test [2] (Konzentration 50 µg/ml), the “% Hemmung der Phospholipase” value turned out to be 100%. For the molecule `CC(=NOCC(Cn1ccnc1)OCc1ccc(Cl)cc1)c1ccc(Cl)cc1` (stereo not drawn) [1.24], the “% Hemmung der Phospholipase” value in test [2] (Konzentration 10 µg/ml) is given as 24,3%; in test [2] (Konzentration 50 µg/ml), 50%. As to `CCCCN(CC(Cn1ccnc1)OCc1ccc(Cl)cc1)c1ccc(Cl)cc1` (stereo not drawn) [1.33], the MIC in test [1] turned out to be 125 µg/mL (≈ 289 µM). Also, the “% Hemmung der Phospholipase” value in test [2] (Konzentration 10 µg/ml) is on record as 24%; in test [2] (Konzentration 50 µg/ml), 80%. For `CC(=NOCC(Cn1ccnc1)Sc1ccc(Cl)cc1)c1ccc(Cl)cc1` (stereo not drawn) [1.26], the “% Hemmung der Phospholipase” value worked out at 50% in test [2] (Konzentration 10 µg/ml) and 90% in test [2] (Konzentration 50 µg/ml). In the case of `Clc1ccc(COC(CN2CCN(c3ccc(Cl)cc3)CC2)Cn2ccnc2)cc1` (stereo not drawn) [1.4], in test [2] (Konzentration 50 µg/ml), the “% Hemmung der Phospholipase” value came to 100%. For the molecule `CCN(CC(Cn1ccnc1)OCc1ccc(Cl)cc1)c1ccc(Cl)cc1` (stereo not drawn) [1.2], the “% Hemmung der Phospholipase” value in test [2] (Konzentration 50 µg/ml) was determined as 90%. `Clc1ccc(OCC(Cn2ccnc2)N2CCN(Cc3ccc(Cl)cc3Cl)CC2)cc1` (stereo not drawn) [1.31]: the “% Hemmung der Phospholipase” value in test [2] (Konzentration 50 µg/ml) is on record as 38,6%; in test [2] (Konzentration 100 µg/ml), 90%.

`Clc1ccc(COC(CN2CCCc3ccccc32)Cn2ccnc2)c(Cl)c1` (stereo not drawn) [1.42]: the “% Hemmung der Phospholipase” value in test [2] (Konzentration 50 µg/ml) turned out to be 100%.

For the molecule `COC(CN(Cc1ccc(Cl)cc1Cl)c1ccc(Cl)cc1)Cn1ccnc1` (stereo not drawn) [1.37], in test [2] (Konzentration 10 µg/ml), the “% Hemmung der Phospholipase” value is on record as 16,7%. On to `CCN(CC(Cn1ccnc1)Sc1ccc(Cl)cc1)c1ccc(Cl)c(Cl)c1` (stereo not drawn) [1.15], for which the MIC in test [1] was found to be 125 µg/mL (≈ 284 µM). Further, the “% Hemmung der Phospholipase” value in test [2] (Konzentration 50 µg/ml) was 100%. The matching figures for `CCN(CC(Cn1ccnc1)OCc1ccc(Cl)cc1Cl)c1ccc(Cl)c(Cl)c1` (stereo not drawn) [1.16]: 125 µg/mL (≈ 264 µM) and 100%. For `OC(CN(Cc1ccc(Cl)cc1)c1ccc(Cl)cc1)Cn1ccnc1` (stereo not drawn) [1.5], the “% Hemmung der Phospholipase” value in test [2] (Konzentration 50 µg/ml) is 100%. On the same count and under the same terms, under `Clc1ccc(N2CCN(C(COCc3ccc(Cl)cc3Cl)Cn3ccnc3)CC2)cc1` (stereo not drawn) [1.20] stands 100%.

For `CCCCCCCCN(CC(Cn1ccnc1)OCc1ccc(Cl)cc1)c1ccc(Cl)cc1` (stereo not drawn) [1.35], the MIC in test [1] is greater than 125 µg/mL. Also, the “% Hemmung der Phospholipase” value in test [2] (Konzentration 10 µg/ml) stood at 45%; in test [2] (Konzentration 50 µg/ml) it was 100%. As to `CCN(CC(Cn1ccnc1)OCc1ccc(Cl)cc1)c1ccc(Cl)cc1Cl` (stereo not drawn) [1.18], the “% Hemmung der Phospholipase” value in test [2] (Konzentration 50 µg/ml) was 60%. On the same count and under the same terms, under `CN(CC(Cn1ccnc1)OCc1ccc(Cl)cc1Cl)c1ccc(Cl)cc1` (stereo not drawn) [1.12] stands 100%.

`Clc1ccc(COC(CN2CCCc3ccccc32)Cn2ccnc2)cc1` (stereo not drawn) [1.43]: the entries for the “% Hemmung der Phospholipase” value in test [2] (Konzentration 10 µg/ml) and in test [2] (Konzentration 50 µg/ml) were 50% and 100%, respectively.

Take `CCN(CC(Cn1ccnc1)OCc1ccc(Cl)cc1Cl)c1cccc(Cl)c1` (stereo not drawn) [1.28]: in test [1], the MIC is 125 µg/mL (≈ 285 µM). For the same molecule, the “% Hemmung der Phospholipase” value is 61,5% in test [2] (Konzentration 50 µg/ml) and 100% in test [2] (Konzentration 100 µg/ml). For `CCN(CC(Cn1ccnc1)OCc1ccc(Cl)cc1)c1cccc(C(F)(F)F)c1` (stereo not drawn) [1.17], the results for the “% Hemmung der Phospholipase” value in test [2] (Konzentration 50 µg/ml) and in test [2] (Konzentration 100 µg/ml) were 12% and 38%, respectively. Consider `CCN(CC(Cn1ccnc1)OCC=C(C)CCC=C(C)C)c1ccc(Cl)cc1` (stereo not drawn) [1.1], for which, in test [1], the MIC is greater than 125 µg/mL. For the same molecule, the “% Hemmung der Phospholipase” value is 15% in test [2] (Konzentration 1 µg/ml), 60% in test [2] (Konzentration 5 µg/ml) and 100% in test [2] (Konzentration 10 µg/ml).

On to `CCN(CC(Cn1ccnc1)OCc1cccc(Cl)c1)c1ccc(Cl)cc1` (stereo not drawn) [1.21], for which, in test [1], the MIC was determined as 125 µg/mL (≈ 309 µM). The “% Hemmung der Phospholipase” value is listed as 12,7% in test [2] (Konzentration 10 µg/ml) and 50% in test [2] (Konzentration 50 µg/ml). Regarding `COC(CN(Cc1ccc(Cl)cc1)c1ccc(Cl)cc1)Cn1ccnc1` (stereo not drawn) [1.6], the “% Hemmung der Phospholipase” value in test [2] (Konzentration 50 µg/ml) is 100%. Consider `CC(=NOCC(Cn1ccnc1)OCc1ccc(Cl)cc1Cl)c1ccc(Cl)cc1` (stereo not drawn) [1.23], for which the “% Hemmung der Phospholipase” value in test [2] (Konzentration 10 µg/ml) is 35,7%; in test [2] (Konzentration 50 µg/ml) it was 100%. With `CCN(CC(Cn1ccnc1)OCc1ccc(Cl)cc1)c1ccc(Cl)c(Cl)c1` (stereo not drawn) [1.14], the entries for the “% Hemmung der Phospholipase” value in test [2] (Konzentration 50 µg/ml) and in test [2] (Konzentration 100 µg/ml) were 30% and 100%, respectively. Regarding `CCN(CC(Cn1ccnc1)SCc1ccc(Cl)cc1)c1cccc(C(F)(F)F)c1` (stereo not drawn) [1.19], the MIC in test [1] came out at 125 µg/mL (≈ 275 µM). Further, in test [2] (Konzentration 50 µg/ml), the “% Hemmung der Phospholipase” value is 71,4%.

For `CCCCCCCCOC(CN(CC)c1ccc(Cl)cc1)Cn1ccnc1` (stereo not drawn) [1.40], in test [1], the MIC was determined as 125 µg/mL (≈ 319 µM). The “% Hemmung der Phospholipase” value in test [2] (Konzentration 10 µg/ml) is given as 75,0%; in test [2] (Konzentration 50 µg/ml), 100%. The matching figures for `CC(=NOCC(Cn1ccnc1)OCc1ccc(Cl)cc1Cl)c1ccc(Cl)cc1Cl` (stereo not drawn) [1.32]: 125 µg/mL (≈ 257 µM), 18,2% and 100%. With `C=CCN(CC(Cn1ccnc1)OCc1ccc(Cl)cc1)c1ccc(Cl)cc1` (stereo not drawn) [1.34], the “% Hemmung der Phospholipase” value is 10,7% in test [2] (Konzentration 10 µg/ml) and 100% in test [2] (Konzentration 50 µg/ml).

Consider `CC(C)N(CC(Cn1ccnc1)OCc1ccc(Cl)cc1)c1ccc(Cl)c(Cl)c1` (stereo not drawn) [1.3], for which, in test [1], the MIC is 125 µg/mL (≈ 276 µM). The “% Hemmung der Phospholipase” value worked out at 25% in test [2] (Konzentration 10 µg/ml) and 100% in test [2] (Konzentration 50 µg/ml). As for `Clc1ccc(COC(CNc2ccc(Cl)cc2)Cn2ccnc2)cc1` (stereo not drawn) [1.13], the “% Hemmung der Phospholipase” value is 26% in test [2] (Konzentration 50 µg/ml) and 33% in test [2] (Konzentration 100 µg/ml).

For the molecule `Clc1ccc(CN2CCN(C(COc3ccc(Cl)cc3Cl)Cn3ccnc3)CC2)cc1` (stereo not drawn) [1.30], the “% Hemmung der Phospholipase” value in test [2] (Konzentration 50 µg/ml) is given as 100%.
